Source: US20110263664A1, “Inhibitors of PIM-1 Protein Kinases, Compositions and Methods for Treating Prostate Cancer” (MUSC FOUNDATION FOR RESEARCH DEVELOPMENT, priority 2007, published 2011)
Where two headings read alike, the source gives them in different places.

Key:
[1] = target: T1, PIM1 (Homo sapiens, UniProt P11309); assay: Pim-1 protein kinase assay (Procedure 1), Table 1; format: biochemical; design: purchased Upstate 14-573
Description: The following in vitro procedure can be used to evaluate compounds for inhibition of Pim-1 protein kinase.

[2] = target: PIM2 (Homo sapiens, UniProt Q9P1W9); assay: Pim-2 kinase IC50, Table 2; format: biochemical
Chain of PIM2 (Q9P1W9 whole entry): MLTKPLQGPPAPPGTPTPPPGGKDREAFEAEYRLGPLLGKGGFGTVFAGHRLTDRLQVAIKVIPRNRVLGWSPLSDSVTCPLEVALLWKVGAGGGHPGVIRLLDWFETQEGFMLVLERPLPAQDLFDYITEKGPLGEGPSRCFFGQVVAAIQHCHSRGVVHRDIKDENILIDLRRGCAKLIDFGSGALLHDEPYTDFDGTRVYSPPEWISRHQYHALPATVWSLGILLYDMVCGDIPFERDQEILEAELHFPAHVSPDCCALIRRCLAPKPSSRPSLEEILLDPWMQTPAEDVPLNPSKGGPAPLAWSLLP

[3] = tested on: Human prostate cancer PC3 cells; assay: Cytotoxicity assay (MTS), PC3 cells, Table 3; format: cell-based; details: PC-3, 48 hours, read-out: IC50 (PC3 cell assay)
Method: Varying concentrations of the test compounds are then added to each well, and the plates were incubated for an additional 48 hours. The number of surviving cells was determined by the MTS assay (Promega). The percentage of cells killed was calculated as the percentage decrease in MTS metabolism compared with control cultures.

[4] = tested on: AMPK protein kinase; assay: Phosphorylation of AMPK on threonine 172
Description: This phosphorylation is known to activate this protein kinase and lead to the phosphorylation of TSC2 and the inhibition of TOR protein kinase (Molecular Cell 30: 214-226, 2008; Oncogene 26: 1616-1625, 2007).

[5] = tested on: phosphoBad in 22Rv1-Pim and DU145-Pim cells; assay: PhosphoBad level by Western blotting in Pim-1 transfected prostate cancer cells; format: cell-based, human; details: 1 hour, serum-free conditions; total Bad constant
[6] = tested on: MV7;11 and FDCP1 cells; assay: Combined treatment with rapamycin, growth inhibition; format: cell-based
[7] = target: T1, PIM1; details: 5 μM, in vitro
[8] = tested on: Cdk2 activity in K562 cells; details: K562 cells treated 72 hours, 10% FCS; histone H1 as substrate
[9] = tested on: PC3, DU145, LNCaP, U937, K582, and MV7;11 cell lines; assay: Growth inhibition of cancer cell lines, 72 hours; format: cell-based, human; details: treatment for 72 hours in culture
[10] = tested on: DU145 and MV7;11 cells; assay: Cell cycle distribution by FACS; details: 5 μM for 72 hours; DU145 in 2% serum, MV7;11 in 10% serum; compared to DMSO control
[11] = target: T1, PIM1; assay: biochemical
[12] = tested on: p27^Kip1 in K562, U937, and MV7;11 cells; assay: p27Kip1 location in cytoplasmic and nuclear fractions; format: cell-based, human; details: 72 hours, media containing 10% FCS; all three cell lines
Method: To examine p27^Kip1 location, K562, U937 or MV7;11 cells (1×10^5/mL) were incubated for 72 hours in complete media with DMSO or a disclosed Pim-1 and/or Pim-2 inhibitor. Cells were harvested, washed in PBS and cytoplasmic and nuclear fractions were prepared using the NE-PER Nuclear and Cytoplasmic Extraction kit (Pierce Biotechnology, Rockford, Ill.) according to the manufacturer's instructions, followed by SDS-PAGE and western blotting with anti-p27^Kip1 antibody, as described above. To measure Cdk2 activity, this protein was immunoprecipitated from K562, U937, or MV7;11 cells treated for 72 hours with Pim inhibitors, lysed in buffer (50 mM Tris-HCl, pH 8.0 containing 5 mM EDTA, 150 mM NaCl, 1% NP-40 and 1 mM phenylmethylsulfonyl fluoride) followed by the addition of Cdk2 antibody (2 μg). Samples were then rotated overnight at 4° C., and Cdk2 was immunoprecipitated by the addition of protein G beads (Pierce Biotechnology) with rotation at room temperature for 1 h. […] Reactions were allowed to proceed for 15 minutes at 37° C., and then analyzed by SDS-PAGE. ^32P-Phosphorylated histone H1 was visualized by autoradiography, and Cdk2 protein levels detected by Western blotting, as described above.

[13] = tested on: PC-3 prostate cancer cell; assay: PC-3 cell viability with or without rapamycin; format: cell-based, human; details: administered alone, doses of 1 and 3 μM, after 36 hours
Description: FIG. 5 depicts the results of these experiments.

[14] = tested on: phosphoBad in FDCP1-Pim cells; assay: PhosphoBad time course in FDCP1-Pim cells; format: cell-based, murine; details: 5 μM, serum and IL-3-free conditions, by 2 hours, compared to DMSO-treated cells
[15] = tested on: 22Rv1-Pim cells; assay: Apoptosis (sub G1, FACS) in 22Rv1-Pim cells; details: 5 μM, 72 hours, serum-free conditions
[16] = tested on: 4E-BP1 phosphorylation in FDCP1 cells

T1 sequence (P11309 whole entry): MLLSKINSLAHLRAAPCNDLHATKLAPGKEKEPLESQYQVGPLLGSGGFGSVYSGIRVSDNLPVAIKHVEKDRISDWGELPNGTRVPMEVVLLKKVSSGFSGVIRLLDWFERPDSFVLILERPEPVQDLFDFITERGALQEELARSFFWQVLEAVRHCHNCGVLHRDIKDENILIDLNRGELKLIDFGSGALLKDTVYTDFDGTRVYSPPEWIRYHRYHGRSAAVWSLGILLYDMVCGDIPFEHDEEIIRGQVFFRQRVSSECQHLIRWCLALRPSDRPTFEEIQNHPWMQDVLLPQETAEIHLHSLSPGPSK

Row | IC50 [1] [µM] | IC50 [2] [µM] | SMILES | IC50 [3] [µM] | further results
1 | 0.04 ± 0.03 | 0.2 ± 0.1 | O=C1NC(=O)/C(=C/c2ccc(Cl)cc2)S1 [Compound D10] |  | 
2 |  | 0.5 ± 0.2 | O=C1NC(=O)/C(=C/c2ccc(OC(F)(F)F)cc2)S1 [Compound D19] | 48 ± 27 | 
3 | 45 ± 11 | 0.09 ± 0.04 | O=C1NC(=O)/C(=C/c2cccc(Br)c2)S1 [Compound D3] | 58 ± 11 | 
4 | 28 ± 23 |  | O=C1NC(=O)/C(=C/c2ccc(Br)cc2)S1 [Compound D11] |  | 
5 | 78 ± 7.5 |  | CN(C)c1ccc(/C=C2/C(=O)NC(=O)N2Cc2ccccc2)cc1 [Compound D31] |  | 
6 | 0.17 ± 0.04 | 43 ± 18 | CCOc1ccc(/C=C2\SC(=O)NC2=O)cc1 [Compound D15] | 65 ± 17 | 
7 | 0.073 ± 0.053 | 2.2 ± 1.1 | O=C1NC(=O)/C(=C/c2cccc(OC(F)(F)C(F)F)c2)S1 [Compound D8] |  | 
8 | 45 ± 15 |  | O=C1S/C(=C\c2ccc(F)cc2)C(=O)N1Cc1ccccc1F [Compound D27] | > 100 | 
9 | 58 ± 7.5 |  | O=C1NC(=O)N(Cc2ccccc2)/C1=C\c1ccc(Br)cc1 [Compound D30] |  | 
10 | 5.1 ± 5 | 0.3 ± 0.1 | COc1ccc(/C=C2\SC(=O)NC2=O)cc1 [Compound D14] | 11 ± 1 | 
11 | 0.067 ± 0.061 | 0.9 ± 0.4 | O=C1NC(=O)/C(=C/c2cccc(OC(F)(F)F)c2)S1 [Compound D7] |  | 
12 | 0.6 ± 0.1 | 0.3 ± 0.1 | CCc1ccc(/C=C2\SC(=O)NC2=O)cc1 [Compound D13] |  | 
13 | 0.04 ± 0.03 | > 100 | CC(C)c1ccc(/C=C2\SC(=O)NC2=O)cc1 [Compound D17] |  | 
14 |  | 4.4 ± 0.2 | Cc1ccc(/C=C2\SC(=O)NC2=O)cc1 [Compound D12] | > 100 | 
15 |  | 2.3 ± 0.1 | O=C1NC(=O)/C(=C/c2ccc(F)cc2)S1 [Compound D9] | 93 ± 5 | 
16 | 0.65 ± 0.05 |  | COc1cccc(/C=C2\SC(=O)NC2=O)c1 [Compound D6] | 73 ± 13 | 
17 |  |  | COc1cccc(/C=C2/C(=O)NC(=O)N2Cc2ccccc2)c1 [Compound D32] | 80 ± 15 | 
18 |  | 0.1 ± 0.3 | O=C1NC(=O)/C(=C/c2cccc(C(F)(F)F)c2)S1 [Compound D5, 5-(3-trifluoromethylbenzylidene)thiazolidine-2,4-dione] |  | phosphorylation of AMPK on threonine 172 [4]: increase the phosphorylation; growth inhibition, combined treatment with rapamycin [6]: significant growth inhibition; inhibition of cell viability [13]: 40%; growth inhibition of cancer cell lines [9]: growth inhibition of each cell line; phosphoBad levels [14]: reduction in phosphoBad levels; sub G1 population [15]: 38.1%; cell cycle arrest [10]: significant G1 cell cycle arrest; amount of p27^Kip1 in nuclear fractions [12]: increase in the amount of p27^Kip1 in nuclear fractions; concentration at which phosphorylation of 4E-BP1 was inhibited ([16]; 1 hour, absent rapamycin): 1.6 to 3.2 µM; effect on rapamycin inhibition of 4E-BP1 phosphorylation ([16]; with or without serum, combined with rapamycin): enhanced the ability of rapamycin to inhibit 4E-BP1 phosphorylation
19 | 6 ± 1.7 | 0.1 ± 0.1 | CN(C)c1ccc(/C=C2\SC(=O)NC2=O)cc1 [Compound D20] | 66 ± 13 | 
20 | 0.16 ± 0.04 | 0.1 ± 0.1 | Cc1cccc(/C=C2\SC(=O)NC2=O)c1 [Compound D4] |  | 
21 | 0.13 ± 0.06 | 0.4 ± 0.2 | O=C1NC(=O)/C(=C/c2cccc(F)c2)S1 [Compound D1] |  | 
22 | 0.33 ± 0.13 | 0.08 ± 0.02 | O=C1NC(=O)/C(=C/c2ccc(C(F)(F)F)cc2)S1 [Compound D18] |  | 
23 | 0.6 ± 0.51 | 0.4 ± 0.15 | O=C1NC(=O)/C(=C/c2cccc(Cl)c2)S1 [Compound D2] |  | 

Row | SMILES | IC50 [1] [µM] | IC50 [2] [µM] | IC50 [3] [µM] | further results
24 | CCCOc1ccc(/C=C2\SC(=O)NC2=O)cc1 [Compound D16, 5-(4-propoxybenzylidene)thiazolidine-2,4-dione] | 0.15 ± 0.11 | 0.02 ± 0.01 |  | phosphorylation of AMPK on threonine 172 [4]: increase the phosphorylation; level of phosphoBad [5]: decreased in a dose-dependent manner; growth inhibition, combined treatment with rapamycin ([6]; 72 hours, rapamycin 5 nM plus compound 5 μM, MV7;11 and FDCP1 cells): significant growth inhibition; phosphorylation of p27^Kip1 by Pim-1 [7]: reduce phosphorylation; decreased Cdk2 activity [8]: ~60%; growth inhibition of cancer cell lines [9]: growth inhibition of each cell line; cell cycle arrest [10]: significant G1 cell cycle arrest; IC50 [11]: 0.063 ± 0.011 µM; amount of p27^Kip1 in nuclear fractions [12]: increase in the amount of p27^Kip1 in nuclear fractions
